Reference: article PMC7153024, “New 8-Nitroquinolinone Derivative Displaying Submicromolar in Vitro Activities against Both Trypanosoma brucei and cruzi” (ACS Medicinal Chemistry Letters, 2020)
Where “and” joins values, the source holds several entries; their conditions need not be identical. Equal values may be shown once.

Assays:
human albumin = assay: Human albumin binding assay; format: in vitro ADME
Protocol: are kept at 4 °C for immediate analysis or placed at -80 °C in case of postponement of the analysis.
Controls (t0 and tfinal) in triplicate are prepared by incubation of the internal standard with microsomes denatured by acetonitrile. The LC-MS used for this study is a Waters® Acquity I-Class / Xevo TQD, equipped with a Waters® Acquity BEH C18 column, 50 x 2.1 mm, 1.7 μm. The mobile phases are (A) […]
The injection volume is 1 µL and […]
the flow rate is 600 µL/min.
98% (B); […]; 2.6 < t < 4 min, 2% (B). Compound 8-bromo-6- […]
chloro-3-nitro-2-(phenylsulfonylmethyl)imidazo[1,2-a]pyridine is used as internal standard. The quantification of each compound is obtained by converting the average of the ratios of the analyte/internal standard surfaces to the percentage of consumed product. The ratio of the control at t0 corresponds to 0% of product consumed. The calculation of the half-life (t1/2) of each compound in the […]
presence of microsomes is done according to the equation: . Where k is the first-order t1=k […]
degradation constant (the slope of the logarithm of compound concentration versus incubation time).
The intrinsic clearance in vitro (Cl int expressed in μL/min/mg) is calculated according to the equation:
Clint= [microsomes]. […]

[1] = Redox potentials by cyclic voltammetry in DMSO; settings: 13 vs hit 2; 9, hit 1 and 2 vs pharmacophore; 10 vs 9; 5 vs 2
[2] = tested on: T. brucei brucei trypomastigotes; assay: Antitrypanosomal activity on T. brucei brucei trypomastigotes (AnTat 1.9, Alamar Blue); format: cell-based, Trypanosoma brucei brucei; settings: HepG2 CC50 versus T. b. brucei EC50
[3] = PAMPA assay using a blood-brain barrier (BBB) model; format: in vitro ADME; settings: tested concentration 100 µM, pH 7.4

O=C(O)c1ccc(-c2cc3cc(Br)cc([N+](=O)[O-])c3[nH]c2=O)cc1 [Compound 13]
Albumin binding assay (human albumin): > 99%
Shift of the E° value versus the comparator compound [1]: +0.16 V
Selectivity index regarding T. b. brucei [2]: > 200
BBB PAMPA assay Pe [3]: 1.27 ×10⁻⁶ cm/s and 1.27 ± 0.09 ×10⁻⁶ cm/s
